Test results from patent US10988466B2, “Heterocyclic derivatives useful as SHP2 inhibitors” (Jacobio Pharmaceuticals Co., Ltd., priority 2017, dated 2021).

Molecular target: T1, SHP2 (Homo sapiens, UniProt Q06124)
T1 sequence (Q06124 1-593): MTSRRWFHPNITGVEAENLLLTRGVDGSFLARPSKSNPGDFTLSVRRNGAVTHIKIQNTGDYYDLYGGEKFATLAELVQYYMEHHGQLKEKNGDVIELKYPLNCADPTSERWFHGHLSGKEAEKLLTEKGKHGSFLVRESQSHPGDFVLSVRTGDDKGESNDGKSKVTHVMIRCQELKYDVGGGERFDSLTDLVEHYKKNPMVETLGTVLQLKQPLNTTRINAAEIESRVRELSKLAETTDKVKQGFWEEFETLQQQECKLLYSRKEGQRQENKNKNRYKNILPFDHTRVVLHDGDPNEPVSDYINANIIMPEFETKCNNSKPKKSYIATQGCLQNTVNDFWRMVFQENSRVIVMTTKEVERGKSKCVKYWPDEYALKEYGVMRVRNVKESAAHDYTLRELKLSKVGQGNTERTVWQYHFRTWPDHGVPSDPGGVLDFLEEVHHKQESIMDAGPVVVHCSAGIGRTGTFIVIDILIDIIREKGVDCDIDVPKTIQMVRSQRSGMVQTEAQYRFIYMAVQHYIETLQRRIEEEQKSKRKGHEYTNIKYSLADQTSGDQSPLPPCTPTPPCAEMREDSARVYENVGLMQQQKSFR
Experiment: biochemical
Conditions: read-out: SHP2 inhibition (%)@0.1 μM
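Note: compounds preincubated 30 min at room temperature in the assay mixture, activity referenced to a 0.5% (v/v) DMSO control taken as 100%, run in triplicate.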

SMILES	inhibition at 0.1 µM
N[C@@H]1c2ccccc2CC12CCN(c1cnc(Sc3ccnc(O)c3Cl)cn1)CC2 [Example 133, (S)-4-((5-(1-amino-1,3-dihydrospiro[indene-2,4′-piperidin]-1′-yl)pyrazin-2-yl)thio)-3-chloro pyridin-2-ol]	76%
N=C1c2csc(Br)c2CC12CCN(c1cnc(Sc3ccnc(N)c3Cl)c(N)n1)CC2 [Example 145, 3-((2-amino-3-chloropyridin-4-yl)thio)-6-(1-bromo-4-imino-4H,6H-spiro [cyclopenta[c]thiophene-5,4′-piperidin]-1′-yl)pyrazin-2-amine]	79%
N#Cc1cc2c(cc1F)CC1(CCN(c3cnc(Sc4ccnc(N)c4Cl)c(N)n3)CC1)[C@@H]2N [Example 42, (S)-1-amino-1′-(6-amino-5-((2-amino-3-chloropyridin-4-yl)thio)pyrazin-2-yl)-5-fluoro-1,3-dihydro-spiro[indene-2, 4′-piperidine]-6-carbonitrile]	49%
Nc1nc(N2CCC3(CC2)Cc2ccccc2/C3=N\O)cnc1Sc1ccnc(N)c1Cl [Example 149, (Z)-1′-(6-amino-5-((2-amino-3-chloropyridin-4-yl)thio)pyrazin-2-yl) spiro[indene-2,4′-piperidin]-1(3H)-one oxime]	28%
Nc1nc(N2CCC3(CC2)Cc2ccc(N4CCOCC4)cc2[C@H]3N)cnc1Sc1ccnc(N)c1Cl [Example 60, (S)-1′-(6-amino-5-((2-amino-3-chloropyridin-4-yl)thio)pyrazin-2-yl)-6-morpholino-1,3-dihydro-spiro[indene-2,4′-piperidin]-1-amine]	70%
Nc1nc(N2CCC3(CC2)Cn2ccc(=O)cc2C3N)cnc1Sc1ccnc(N)c1Cl (centres unmarked) [Example 140, 1-amino-1′-(6-amino-5-((2-amino-3-chloropyridin-4-yl)thio)pyrazin-2-yl)-3H-spiro[indolizine-2,4′-piperidin]-7(1H)-one]	14%
CSc1ccc2c(c1)[C@@H](N)C1(CCN(c3cnc(Sc4ccnc(N)c4Cl)c(N)n3)CC1)C2 [Example 74, (S)-1′-(6-amino-5-((2-amino-3-chloropyridin-4-yl)thio)pyrazin-2-yl)-6-(methylthio)-1,3-dihydro-spiro[indene-2,4′-piperidin]-1-amine]	76%
Nc1nc(N2CCC3(CC2)Cc2ccc(-n4cccc4)cc2[C@H]3N)cnc1Sc1ccnc(N)c1Cl [Example 37, (S)-1′-(6-amino-5-((2-amino-3-chloropyridin-4-yl)thio)pyrazin-2-yl)-6-(1H-pyrrol-1-yl)-1,3-dihydro-spiro[indene-2,4′-piperidin]-1-amine]	76%
Nc1nc(N2CCC3(CC2)Cc2ccc(F)c(F)c2[C@H]3N)cnc1Sc1ccnc(N)c1Cl [Example 40, (S)-1′-(6-amino-5-((2-amino-3-chloropyridin-4-yl)thio)pyrazin-2-yl)-6,7-difluoro-1,3-dihydro-spiro[indene-2,4′-piperidin]-1-amine]	74%
Nc1cccc(Sc2ncc(N3CCC4(CC3)Cc3ccccc3[C@H]4N)nc2N)c1Cl [Example 53, (S)-1′-(6-amino-5-((3-amino-2-chlorophenyl)thio)pyrazin-2-yl)-1,3-dihydro spiro[2,4′-piperidin]-1-amine]	84%
CC(=O)N1CC(F)(F)c2c(Sc3ncc(N4CCC5(CC4)Cc4ncccc4[C@H]5N)nc3N)cccc21 [Example 103, (S)-1-(4-((3-amino-5-(5-amino-5,7-dihydrospiro [cyclopenta[b]pyridine-6,4′-piperidin]-1′-yl)pyrazin-2-yl)thio)-3,3-difluoroindolin-1-yl) ethan-1-one]	76%
Nc1nc(N2CCC3(CC2)Cc2cc(F)c(Br)cc2[C@H]3N)cnc1Sc1ccnc(N)c1Cl [Example 38, (S)-1′-(6-amino-5-((2-amino-3-chloropyridin-4-yl)thio)pyrazin-2-yl)-6-bromo-5-fluoro-1,3-dihydrospiro[indene-2,4′-piperidin]-1-amine]	75%
CC(=O)c1ccc2c(c1)[C@@H](N)C1(CCN(c3cnc(Sc4ccnc(N)c4Cl)c(N)n3)CC1)C2 [Example 158, (S)-1-(1-amino-1′-(6-amino-5-((2-amino-3-chloropyridin-4-yl)thio)pyrazin-2-yl)-1,3-dihydrospiro[indene-2,4′-piperidin]-6-yl)ethan-1-one]	90%
Nc1nc(N2CCC3(CC2)Cc2ccc(Cl)cc2[C@H]3N)cnc1Sc1ccnc(N)c1Cl [Example 15, (S)-1′-(6-amino-5-((2-amino-3-chloropyridin-4-yl)thio)pyrazin-2-yl)-6-chloro-1,3-dihydrospiro[indene-2,4′-piperidin]-1-amine]	83%
COc1cc2c(cn1)[C@@H](N)C1(CCN(c3cnc(Sc4ccnc(N)c4Cl)c(N)n3)CC1)C2 [Example 20]	86%
Nc1nc(N2CCC3(CC2)Cc2ccc(C(=O)O)cc2[C@H]3N)cnc1Sc1ccnc(N)c1Cl [Example 80, (S)-1-amino-1′-(6-amino-5-((2-amino-3-chloropyridin-4-yl)thio)pyrazin-2-yl)-1,3-dihydrospiro [indene-2,4′-piperidine]-6-carboxylic acid]	75%
Cc1ccc2c(c1)[C@@H](N)C1(CCN(c3cnc(Sc4ccnc(N)c4Cl)c(N)n3)CC1)C2 [Example 23, (S)-1′-(6-amino-5-((2-amino-3-chloropyridin-4-yl)thio)pyrazin-2-yl)-6-methyl-1,3-dihydro-spiro[indene-2,4′-piperidin]-1-amine]	71%
Nc1nc(N2CCC3(CC2)Cc2sc(Cl)nc2C3N)cnc1Sc1ccnc(N)c1Cl (centres unmarked) [Example 130, 1′-(6-amino-5-((2-amino-3-chloropyridin-4-yl)thio)pyrazin-2-yl)-2-chloro-4,6-dihydro-spiro[cyclopenta [d]thiazole-5,4′-piperidin]-4-amine]	94%
Nc1nc(N2CCC3(CC2)Cc2cc(F)c(F)cc2[C@H]3N)cnc1Sc1ccnc(N)c1Cl [Example 39, (S)-1′-(6-amino-5-((2-amino-3-chloropyridin-4-yl)thio)pyrazin-2-yl)-5,6-difluoro-1,3-dihydro-spiro[indene-2,4′-piperidin]-1-amine]	67%
CCOP(=O)(OCC)c1ccc2c(c1)[C@@H](N)C1(CCN(c3cnc(Sc4ccnc(N)c4Cl)c(N)n3)CC1)C2 [Example 90, diethyl (S)-(1-amino-1′-(6-amino-5-((2-amino-3-chloropyridin-4-yl)thio)pyrazin-2-yl)-1,3-dihydrospiro [indene-2,4′-piperidin]-6-yl) phosphonate]	71%

The remaining lines, values ahead:

inhibition at 0.1 µM	SMILES
82%	N[C@@H]1c2cccnc2CC12CCN(c1cnc(Sc3cnccc3Cl)cn1)CC2 [Example 106, (S)-1′-(5-((4-chloropyridin-3-yl)thio)pyrazin-2-yl)-5,7-dihydrospiro [cyclopenta[b]pyridine-6,4′-piperidin]-5-amine]
61%	N[C@@H]1c2cccnc2CC12CCN(c1cnc(Sc3cc(Cl)ncc3C(F)(F)F)cn1)CC2 [Example 119, (S)-1′-(5-((2-chloro-5-(trifluoro-methyl)pyridin-4-yl)thio)pyrazin-2-yl)-5,7-dihydro-spiro[cyclopenta [b]pyridine-6,4′-piperidin]-5-amine]
35%	Nc1nc(N2CCC3(CC2)Cc2ccccc2[C@@H]3N)cnc1Sc1ccnc(N)c1Cl [Example 18, (R)-1′-(6-amino-5-((2-amino-3-chloropyridin-4-yl)thio)pyrazin-2-yl)-1,3-dihydrospiro[indene-2,4′-piperidin]-1-amine]
85%	COc1nccc(Sc2cnc(N3CCC4(CC3)Cc3ccccc3[C@H]4N)cn2)c1Cl [Example 51, (S)-1′-(5-((3-chloro-2-methoxypyridin-4-yl)thio)pyrazin-2-yl)-1,3-dihydro-spiro[indene-2,4′-piperidin]-1-amine]
72%	Nc1nc(N2CCC3(CC2)Cc2ccccc2[C@H]3N)cnc1Sc1ccnc(Cl)c1Cl [Example 66, (S)-1′-(6-amino-5-((2,3-dichloropyridin-4-yl)thio)pyrazin-2-yl)-1,3-dihydro-spiro[indene-2,4′-piperidin]-1-amine]
82%	Nc1nc(N2CCC3(CC2)Cc2ncccc2[C@H]3N)cnc1Sc1c(Cl)cncc1Cl [Example 111, (S)-1′-(6-amino-5-((3,5-dichloro-pyridin-4-yl)thio)pyrazin-2-yl)-5,7-dihydrospiro [cyclopenta[b]pyridine-6,4′-piperidin]-5-amine]
61%	N[C@@H]1c2cccnc2CC12CCN(c1cnc(Sc3c(Cl)cncc3Cl)cn1)CC2 [Example 110, (S)-1′-(5-((3,5-dichloropyridin-4-yl)thio)pyrazin-2-yl)-5,7-dihydrospiro [cyclopenta[b]pyridine-6,4′-piperidin]-5-amine]
86%	Nc1cccc(Sc2cnc(N3CCC4(CC3)Cc3ncccc3[C@H]4N)cn2)c1Cl [Example 97, (S)-1′-(5-((3-amino-2-chlorophenyl)thio)pyrazin-2-yl)-5,7-dihydro-spiro[cyclopenta [b]pyridine-6,4′-piperidin]-5-amine]
54%	Nc1nc(N2CCC3(CC2)Cc2cccnc2C[C@H]3N)cnc1Sc1ccnc(N)c1Cl [Example 9, (R)-1-(6-amino-5-((2-amino-3-chloropyridin-4-yl)thio)pyrazin-2-yl)-7,8′-dihydro-5′H-spiro [piperidine-4,6′-quinolin]-7′-amine]
